Laboratory results from publication PMC8151276, “An Integrated Approach toward NanoBRET Tracers for Analysis of GPCR Ligand Engagement” (Molecules, 2021).

Biological target: T1, ADORA3 (Homo sapiens, UniProt P0DMS8)
T1 construct: purchased Promega (in-house HiBiT-GPCR construct library, NanoBRET)
T1 sequence (P0DMS8 1-318): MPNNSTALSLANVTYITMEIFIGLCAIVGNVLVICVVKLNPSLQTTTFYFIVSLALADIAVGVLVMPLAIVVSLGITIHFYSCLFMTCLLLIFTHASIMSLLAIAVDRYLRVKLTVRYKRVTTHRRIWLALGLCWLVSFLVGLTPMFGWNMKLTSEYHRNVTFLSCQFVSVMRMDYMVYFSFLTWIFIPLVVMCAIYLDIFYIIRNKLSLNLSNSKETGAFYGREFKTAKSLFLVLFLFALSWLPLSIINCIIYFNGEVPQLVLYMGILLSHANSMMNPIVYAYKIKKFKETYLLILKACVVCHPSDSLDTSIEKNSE
Test: NanoBRET screen HiBiT-ADORA3 in HEK293
Assay type: binding
Protocol: Each tracer candidate was screened across the entire library of HiBiT-GPCR constructs using NanoBRET as the detection modality. As depicted in Figure 4A, the specificity of interactions was evaluated through decrease in BRET due to competitive displacement of a bound tracer by excess parental compound. Each tracer was analyzed for binding to each HiBiT-GPCR fusion in the absence and in the presence of competing parental compound. Briefly, HEK293 cells were transfected with HiBiT-GPCR constructs diluted into promoterless DNA to reduce expression and maximize translocation to the cell surface. Each tracer candidate was then screened at concentrations of 1 μM and 0.1 μM across cells expressing these fusions. Cells were treated for 1.5 h with tracer either alone or in the presence of 20 μM competing parental compound (i.e., control). BRET was measured upon addition of purified LgBiT and subsequent complementation with HiBiT genetically fused to a GPCR. The specificity of interactions was assessed through a decrease in BRET signal due to competitive displacement of the bound tracer. To further gauge the robustness of these interactions, the fold response over the control (i.e., BRETtracer/BRETcontrol) was calculated. We chose a 1.5-fold response, which translates to ≥7-fold signal over noise as the minimal threshold required to score an interaction as positive. […]. Below we highlight the screening results obtained for our exemplary fluorescent tracers based on Clozapine, Amitriptyline and AZD1283.
HiBiT-GPCR DNA constructs were diluted in 10 mM Tris pH 8 to a final concentration of 0.01 μg/μL, arrayed in 96-well plates and stored at −20 °C. For transfection, HEK293 cells were suspended in Opti-MEM (without phenol red) supplemented with 2% fetal bovine serum (Seradigm) and 100 units/mL penicillin–streptomycin (Gibco) at a final concentration of 220,000 cells/mL and dispensed into white 96-well plates at 90 μL/well. Subsequent transfections and screens were carried using an Agilent Bravo Automated Liquid Handling Platform. First, the 96-well HiBiT DNA arrays were diluted 25-fold in Opti-MEM (without serum or phenol red) to a final concentration of 0.0004 μg/μL and 20 μL of the diluted DNAs were transferred into new 96-well plates. Next, promoterless carrier DNA (1 μg/μL) was diluted 25-fold (0.04 μg/μL) and then dispensed into the diluted arrays at 20 μL/well. Following brief mixing, Viafect transfection reagent (Promega) diluted 16-fold into Opti-MEM was dispensed into the plates at 40 μL/well. After mixing by pipetting, plates were incubated for 10 min on the pipetting station deck. The DNA-transfection reagent complexes were then added to plates containing cells. To facilitate the screen, 10 μL of DNA-transfection reagent complexes were added in duplicates to the top 4 and bottom 4 rows, resulting in two identical 48-well arrays per plate. Plates with transfected cells were incubated for 18–20 h at 37 °C/5% CO2. A screen of each tracer across the entire library using two different concentrations requires duplicate plates of transfected cells. Depending on the number of tracers being screened, transfections can be scaled up using the same ratios. The next day, for each tracer, four 20× screening solutions in tracer dilution buffer (Promega) were prepared: two duplicates at final concentration of 20 μM and two duplicates at a final concentration of 2 μM. A competing unmodified compound was added to one of each duplicate at a final concentration of 400 μM. The four resulting solutions were diluted 4-fold in Opti-MEM without serum or phenol red to generate 5× solutions (5 µM and 0.5 µM tracer +/− 100 μM competing compound). To screen the library, a BioTek MultiFlo FX liquid dispenser was used to dispense 22.5 µL of tracer solution to the top 4 rows and 22.5 µL tracer + competing compound solution to the 4 bottom rows. Plates were briefly mixed on an orbital shaker and incubated for 1.5 h at room temperature. […]

Compound | NanoBRET Fold Response (ADORA3, tracer 0.1μM) | NanoBRET Fold Response (ADORA3, tracer 1μM) | further results
O=C(CCc1ccc2n1[B-](F)(F)[N+]1=C(c3ccc[nH]3)C=CC1=C2)NCc1ccc(C(=O)NCCOCCC(=O)N[C@@H]2CC[C@@]3(O)[C@H]4Cc5ccc(O)c6c5[C@@]3(CCN4CC3CC3)[C@H]2O6)cc1 [Naltrexone-3-NB590] | 0.77 | 0.84 | 
CCCn1c(=O)c2[nH]c(-c3ccc(OCC(=O)NCCNC(=O)CCOCCNC(=O)c4ccc(CNC(=O)CCc5ccc6n5[B-](F)(F)[N+]5=C(c7ccc[nH]7)C=CC5=C6)cc4)cc3)nc2n(CCC)c1=O [XAC-3-NB590] | 12.13 | 6.72 | 
CC(C)N(CC[C@H](c1ccccc1)c1cc(CCNC(=O)c2ccc(CNC(=O)CCc3ccc4n3[B-](F)(F)[N+]3=C(c5ccc[nH]5)C=CC3=C4)cc2)ccc1O)C(C)C [Tolterodine-BZ-NB590] | 0.58 | 0.71 | 
COc1ccc2[nH]c(-c3ccc(CNC(=O)CCOCCOCCOCCOCCNC(=O)CCc4ccc5n4[B-](F)(F)[N+]4=C(c6ccc[nH]6)C=CC4=C5)cc3)c(CCNC(C)=O)c2n1 [AzomelatoninICO9-2-NB590] |  |  | NanoBRET Fold Response (0.1μM tracer): 0.91; NanoBRET Fold Response (1μM tracer): 0.97
CN1CCN(C2=Nc3cc(Cl)ccc3N(CC(=O)NCCOCCOCCOCCOCCNC(=O)CCc3ccc4n3[B-](F)(F)[N+]3=C(c5ccc[nH]5)C=CC3=C4)c3ccccc32)CC1 [Clozapine-c-2-NB590] |  |  | NanoBRET Fold Response (ADORA3, 0.1μM tracer): 1.05; NanoBRET Fold Response (ADORA3, 1μM tracer): 0.81
COc1ccccc1N1CCN(CCCCN2C(=O)c3ccc(CNC(=O)CCOCCNC(=O)c4ccc(CNC(=O)CCc5ccc6n5[B-](F)(F)[N+]5=C(c7ccc[nH]7)C=CC5=C6)cc4)cc3C2=O)CC1 [NAN-190-3-NB590] | 0.97 | 1.19 | 
Cc1nc2n(c(=O)c1CCN1CCC(c3noc4cc(F)ccc34)CC1)CCCC2OC(=O)NCCOCCOCCOCCOCCNC(=O)CCc1ccc2n1[B-](F)(F)[N+]1=C(c3ccc[nH]3)C=CC1=C2 (centres unmarked) [Risperidone-2-NB590] | 1.03 | 0.87 | 
O=C(CCOCCOCCOCCOCCNC(=O)CCc1ccc2n1[B-](F)(F)[N+]1=C(c3ccc[nH]3)C=CC1=C2)NCCCN1CCN(C2=Nc3ccccc3Oc3ccc(Cl)cc32)CC1 [Loxapine-a-2-NB590] | 1.04 | 0.78 | 
COc1ccccc1N1CCN(CCCCN2C(=O)c3ccc(CNC(=O)CCOCCOCCOCCOCCNC(=O)CCc4ccc5n4[B-](F)(F)[N+]4=C(c6ccc[nH]6)C=CC4=C5)cc3C2=O)CC1 [NAN-190-2-NB590] | 0.96 | 0.89 | 
CC(C)N(CC[C@H](c1ccccc1)c1cc(CCNC(=O)CCOCCOCCOCCOCCNC(=O)CCc2ccc3n2[B-](F)(F)[N+]2=C(c4ccc[nH]4)C=CC2=C3)ccc1O)C(C)C [Tolterodine-2-NB590] | 1.12 | 1.00 | 
N#CN=C(NCCCOc1cccc(CN2CCCCC2)c1)NCCNC(=O)CCOCCOCCOCCOCCNC(=O)CCc1ccc2n1[B-](F)(F)[N+]1=C(c3ccc[nH]3)C=CC1=C2 [Aminopotentidine-2-NB590] | 1.16 | 1.03 | 
CCOC(=O)c1cc(C#N)c(N2CCC(C(=O)NS(=O)(=O)Cc3ccccc3/C=C/C(=O)NCCNC(=O)CCc3ccc4n3[B-](F)(F)[N+]3=C(c5ccc[nH]5)C=CC3=C4)CC2)nc1C [AZD1283-1-NB590] |  |  | NanoBRET Fold Response (ADORA3, 0.1μM): 1.11; NanoBRET Fold Response (ADORA3, 1μM): 1.09
CN(C)CCC=C1c2ccccc2CCc2ccc(C(=O)NCCNC(=O)CCOCCOCCOCCOCCNC(=O)CCc3ccc4n3[B-](F)(F)[N+]3=C(c5ccc[nH]5)C=CC3=C4)cc21 [Amitriptyline-b-2-NB590] |  |  | NanoBRET Fold Response (tracer at 0.1μM, listed as amitriptyline-b-2-NB590): 0.87; NanoBRET Fold Response (tracer at 1μM, listed as amitriptyline-b-2-NB590): 0.66
CN(C)CCC=C1c2ccccc2CCc2ccc(C(=O)NCCNC(=O)CCOCCOCCOCCOCCNC(=O)CCc3ccc4n3[B-](F)(F)[N+]3=C(c5ccc[nH]5)C=CC3=C4)cc21 [Amitriptyline-a-2-NB590] |  |  | NanoBRET Fold Response (tracer at 0.1μM): 1.00; NanoBRET Fold Response (tracer at 1μM): 1.07
O=C(CCc1ccc2n1[B-](F)(F)[N+]1=C(c3ccc[nH]3)C=CC1=C2)NCCOCCOCCNC(=O)OCCOCCN1CCN(C2=Nc3ccccc3Sc3ccccc32)CC1 [Quetiapine-a-2-NB590] | 0.98 | 0.82 | 
Cc1cc2c(s1)Nc1ccccc1N=C2N1CCN(CCCNC(=O)CCOCCOCCOCCOCCNC(=O)CCc2ccc3n2[B-](F)(F)[N+]2=C(c4ccc[nH]4)C=CC2=C3)CC1 [Olanzapine-a-2-NB590] | 0.94 | 1.13 | 
CN1CCN(C2=Nc3cc(Cl)ccc3Nc3ccc(CNC(=O)CCOCCOCCOCCOCCNC(=O)CCc4ccc5n4[B-](F)(F)[N+]4=C(c6ccc[nH]6)C=CC4=C5)cc32)CC1 [Clozapine-b-2-NB590] |  |  | NanoBRET Fold Response (ADORA3, 0.1μM tracer): 1.02; NanoBRET Fold Response (ADORA3, 1μM tracer): 1.08
COc1ccc2c(n1)c(CCNC(C)=O)cn2CCNC(=O)CCc1ccc2n1[B-](F)(F)[N+]1=C(c3ccc[nH]3)C=CC1=C2 [Azamelatonin-1-NB590] |  |  | NanoBRET Fold Response (0.1μM tracer): 1.01; NanoBRET Fold Response (1μM tracer): 1.02
CN(CCC=C1c2ccccc2CCc2ccccc21)C(=O)CCOCCOCCOCCOCCNC(=O)CCc1ccc2n1[B-](F)(F)[N+]1=C(c3ccc[nH]3)C=CC1=C2 [Amitriptyline-e-2-NB590] |  |  | NanoBRET Fold Response (tracer at 1μM): 0.99
O=C(CCc1ccc2n1[B-](F)(F)[N+]1=C(c3ccc[nH]3)C=CC1=C2)NCc1ccc(C(=O)NCCOCCOCCNCC(O)COc2cccc3ccccc23)cc1 (centres unmarked) [Propranolol-3-NB590] |  |  | NanoBRET Fold Response (ADORA3, 0.1μM): 1.04; NanoBRET Fold Response (ADORA3, 1μM): 0.98
O=C(CCOCCOCCOCCOCCNC(=O)CCc1ccc2n1[B-](F)(F)[N+]1=C(c3ccc[nH]3)C=CC1=C2)NCCCN1CCN(C2=Nc3cc(Cl)ccc3Nc3ccccc32)CC1 [Clozapine-a-2-NB590] |  |  | NanoBRET Fold Response (ADORA3, 0.1μM tracer): 1.04; NanoBRET Fold Response (ADORA3, 1μM tracer): 0.83
